Literature values as cited in patent US20190117852A1, “IMPROVEMENTS IN STENTS FOR THE RELEASE OF ACTIVE PRINCIPLES” (CID S.p.A., priority 2016, published 2019).

Settings: duration of release; correlated to complete in vitro release at 30 hours

- in vivo release after coronary implantation: greater than 30 days
Compound: CO[C@H]1C[C@@H]2CC[C@@H](C)[C@@](O)(O2)C(=O)C(=O)N2CCCC[C@H]2C(=O)O[C@H]([C@H](C)C[C@@H]2CC[C@@H](O)[C@H](OC)C2)CC(=O)[C@H](C)/C=C(\C)[C@@H](O)[C@@H](OC)C(=O)[C@H](C)C[C@H](C)/C=C/C=C/C=C/1C [Sirolimus]
